Results reported in US12194039B2, “Methods of treating heart failure by administering omecamtiv mecarbil” (Cytokinetics, Inc., priority 2020, dated 2025).
Values joined by “and” are separate entries in the source; they are usually repeats but may differ in a detail not shown here. Equal entries are not always repeated. “Also recorded” adds a separate entry of the source. Where two headings read alike, the source gives them in different places.

Experiments:
[1] = system: patients with HFrEF by baseline NT-proBNP (no AF/F and all randomized); conditions: for 1° Outcome (time to HF hospitalization or CV death), HR / All-cause death, HR / Hospitalization for HF, HR / NT-proBNP change from baseline to 24 weeks, Ratio: OM vs placebo
Description: Here we report the effect of omecamtiv mecarbil according to baseline NT-proBNP level in patients without AF/F and in the overall population. In addition, we describe the effect of omecamtiv mecarbil using NT-proBNP as a continuous as well as a categorical measure and describe the effect of omecamtiv mecarbil on NT-proBNP level.
NT-proBNP was measured at baseline and at 2, 6, 24, 48 and 96 weeks after randomization. Plasma NT-proBNP was measured in a central laboratory (Q Squared Solutions) using the Roche Elecsys NT-proBNP two-site electrochemiluminescence immunoassay (analytical range 50-35000 pg/m L).
Baseline characteristics were summarized as frequencies with percentages, means with standard deviation (SD), or medians with interquartile ranges. Differences in baseline characteristics were tested using the Cochrane-Armitage trend test for categorical variables and the analysis of variance test for continuous variables. The difference between treatment groups in NT-proBNP at the time points after randomization in surviving patients was analyzed using an analysis of covariance model, with treatment-group assignment as a fixed-effect factor and baseline NT-proBNP as a covariate. […] Time-to-event data were evaluated with Kaplan-Meier estimates and Cox proportional-hazards models with baseline hazards stratified by randomization setting and region and with treatment group and baseline eGFR as covariates. The safety analyses were performed in patients who underwent randomization and received at least one dose of omecamtiv mecarbil or placebo. […] A P-value of 0.05 was considered statistically significant.

[2] = assay type: in vivo; conditions: human, plasma, oral, at 6 weeks, read-out: Omecamtiv mecarbil PK value (plasma concentration), median
[3] = target: T1, BCRP (Homo sapiens, UniProt Q9UNQ0); assay: In vitro inhibition by OM; assay type: in vitro ADME; conditions: result in words
T1 sequence (Q9UNQ0 1-655): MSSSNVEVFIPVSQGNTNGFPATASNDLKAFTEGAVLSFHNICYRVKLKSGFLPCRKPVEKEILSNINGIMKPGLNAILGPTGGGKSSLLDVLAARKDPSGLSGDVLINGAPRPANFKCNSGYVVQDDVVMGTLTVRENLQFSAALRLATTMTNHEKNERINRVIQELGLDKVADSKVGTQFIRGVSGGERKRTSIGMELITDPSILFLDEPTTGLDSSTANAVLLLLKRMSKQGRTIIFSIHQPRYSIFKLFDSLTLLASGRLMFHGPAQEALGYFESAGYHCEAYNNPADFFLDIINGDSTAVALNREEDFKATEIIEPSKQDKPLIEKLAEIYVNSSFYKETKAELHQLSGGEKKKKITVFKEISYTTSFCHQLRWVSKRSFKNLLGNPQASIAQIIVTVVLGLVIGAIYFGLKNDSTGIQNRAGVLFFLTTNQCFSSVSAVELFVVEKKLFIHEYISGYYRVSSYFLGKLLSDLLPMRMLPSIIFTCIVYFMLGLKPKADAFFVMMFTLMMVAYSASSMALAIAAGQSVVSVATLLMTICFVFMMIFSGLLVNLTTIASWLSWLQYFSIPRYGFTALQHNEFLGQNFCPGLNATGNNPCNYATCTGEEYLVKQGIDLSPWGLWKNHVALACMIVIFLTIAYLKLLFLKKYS

[4] = target: T1, BCRP; assay: Clinical studies and physiologically based pharmacokinetic modeling of OM as perpetrator; assay type: in vivo; parameters: from tissue; conditions: clinical studies and PBPK modeling; result in words
Description: OM may be administered with drugs that are substrates of CYP3A4, CYP2C8, P-gp or BCRP.

[5] = system: patients with HFrEF by baseline SBP; assay type: in vivo
Description: Systolic blood pressure (SBP) is a major predictor of outcomes in patients with heart failure and reduced ejection fraction (HFrEF). […] This trial provided data on the efficacy and tolerability of omecamtiv mecarbil according to baseline SBP values. In contrast to other HFrEF therapies, which may not be tolerated in patients with low baseline blood pressure (e.g., <100 mmHg), the present study was able to enroll patients with SBP at baseline of 85 mmHg or greater.
The 8232 randomized patients were subdivided according to SBP at baseline: <100 mmHg (n=1473), 101-110 mmHg (n=1734), 111-120 mmHg (n=1824), 121-130 mmHg (n=1627), and >130 mmHg (n=1574). Significant differences between these subgroups were found with respect of multiple baseline characteristics. The primary composite endpoint occurred in 715 (48.5%), 682 (39.3%), 679 (37.2%), 556 (34.2%), and 498 (31.6%) patients in each SBP subgroup, respectively. Hazard ratios (HRs) and 95% confidence intervals (CIs) for the treatment effect on the primary outcome were of 0.81, 0.70-0.94; 0.88, 0.76-1.03; 1.03, 0.88-1.19; 0.87, 0.73-1.03; and 1.07, 0.90-1.28 in each SBP subgroup, respectively.

[6] = system: plasma proteins; assay: Plasma protein binding; assay type: in vitro ADME
[7] = All patients, baseline NT-proBNP >median
[8] = All patients, baseline NT-proBNP >median, OM n = 2034
[9] = All patients, baseline NT-proBNP ≤median
[10] = All patients, baseline NT-proBNP ≤median, OM n = 2073
[11] = No AF/F, baseline NT-proBNP >median
[12] = No AF/F, baseline NT-proBNP >median, OM n = 1489
[13] = No AF/F, baseline NT-proBNP ≤median
[14] = No AF/F, baseline NT-proBNP ≤median, OM n = 1476
[15] = patients without AF/F, baseline NT-proBNP>median

COC(=O)N1CCN(Cc2cccc(NC(=O)Nc3ccc(C)nc3)c2F)CC1 [omecamtiv mecarbil]
NT-proBNP at 24 wks [1, 7]: 2809 pg/mL
1° Outcome (time to HF hospitalization or CV death), % [1, 8]: (48) %
1° Outcome (time to HF hospitalization or CV death), Rate [1, 8]: 36.52 per 100 person-years
All-cause Death (%) [1, 8]: (36) %
All-cause Death Rate [1, 8]: 21.87 per 100 person-years
Hospitalization for HF, % [1, 8]: (37) %
Hospitalization for HF, Rate [1, 8]: 27.93 per 100 person-years
1° Outcome (time to HF hospitalization or CV death), HR [1, 7]: 0.88
All-cause death, HR [1, 7]: 0.97
Hospitalization for HF, HR [1, 7]: 0.88
NT-proBNP change from baseline to 24 weeks, Ratio [1, 7]: 0.84
NT-proBNP at 24 wks [1, 9]: 772 pg/mL
1° Outcome (time to HF hospitalization or CV death), % [1, 10]: (26) %
1° Outcome (time to HF hospitalization or CV death), Rate [1, 10]: 15.00 per 100 person-years
All-cause Death (%) [1, 10]: (16) %
All-cause Death Rate [1, 10]: 8.11 per 100 person-years
Hospitalization for HF, % [1, 10]: (20) %
Hospitalization for HF, Rate [1, 10]: 11.84 per 100 person-years
1° Outcome (time to HF hospitalization or CV death), HR [1, 9]: 1.02
All-cause death, HR [1, 9]: 1.10
Hospitalization for HF, HR [1, 9]: 1.04
NT-proBNP change from baseline to 24 weeks, Ratio [1, 9]: 0.95
NT-proBNP threshold at which the favorable effect emerged ([1]; NT-proBNP as a continuous measure, patients without AF/F): around 2,000 pg/mL
NT-proBNP at 24 wks [1, 11]: 2302 pg/mL
1° Outcome (time to HF hospitalization or CV death), % [1, 12]: (44) %
1° Outcome (time to HF hospitalization or CV death), Rate [1, 12]: 31.30 per 100 person-years
All-cause Death (%) [1, 12]: (32) %
All-cause Death Rate [1, 12]: 18.67 per 100 person-years
Hospitalization for HF, % [1, 12]: (32) %
Hospitalization for HF, Rate [1, 12]: 23.26 per 100 person-years
1° Outcome (time to HF hospitalization or CV death), HR [1, 11]: 0.81
All-cause death, HR [1, 11]: 0.86
Hospitalization for HF, HR [1, 11]: 0.79
NT-proBNP change from baseline to 24 weeks, Ratio [1, 11]: 0.83
NT-proBNP at 24 wks [1, 13]: 614 pg/mL
1° Outcome (time to HF hospitalization or CV death), % [1, 14]: (22) %
1° Outcome (time to HF hospitalization or CV death), Rate [1, 14]: 12.42 per 100 person-years
All-cause Death (%) [1, 14]: (13) %
All-cause Death Rate [1, 14]: 6.74 per 100 person-years
Hospitalization for HF, % [1, 14]: (17) %
Hospitalization for HF, Rate [1, 14]: 9.62 per 100 person-years
1° Outcome (time to HF hospitalization or CV death), HR [1, 13]: 0.94
All-cause death, HR [1, 13]: 0.96
Hospitalization for HF, HR [1, 13]: 0.97
NT-proBNP change from baseline to 24 weeks, Ratio [1, 13]: 0.95
Effect on NT-proBNP by baseline NT-proBNP ([1]; baseline to 24 weeks, result in words): reduced NT-proBNP only in patients with a baseline value NT-proBNP greater than the median
Adverse events compared to placebo ([1]; in vivo): no strong or consistent evidence that any adverse event was more common
Effect on systolic blood pressure ([1]; in vivo): did not have a significant effect
Effect on troponin I ([1]; in vivo): increased troponin I, significantly
HR (heart rate) at 24 wks ([1]; in vivo): 70 (11) bpm and 69 bpm and 70 (12) bpm and 70 bpm
Major cardiac ischemic events, RR ([1]; in vivo): 1.16 (0.86, 1.56) and 1.10 (0.85, 1.43) and 1.08 (0.80, 1.47) and 0.99 (0.74, 1.33)
Major cardiac ischemic events, number of patients ([1]; in vivo): 86 (5.8) and 114 (5.5) and 83 (5.6) and 85 (4.2)
Major cardiac ischemic events, value in parentheses ([1]; in vivo): 86 (5.8) and 114 (5.5) and 83 (5.6) and 85 (4.2)
Reduction of heart rate ([1]; in vivo): 1-2 beats per minute
SBP at 24 wks ([1]; in vivo): 120 mmHg and 116 mmHg
Stroke, RR ([1]; in vivo): 0.83 (0.49, 1.39) and 0.68 (0.44, 1.03) and 0.73 (0.45, 1.17) and 0.69 (0.46, 1.03)
Stroke, number of patients ([1]; in vivo): 25 (1.7) and 36 (1.7) and 29 (2.0) and 40 (2.0)
Stroke, value in parentheses ([1]; in vivo): 25 (1.7) and 36 (1.7) and 29 (2.0) and 40 (2.0)
Torsade/QT prolongation, RR ([1]; in vivo): 0.84 (0.58, 1.23) and 0.88 (0.65, 1.19) and 1.01 (0.73, 1.39) and 0.94 (0.72, 1.23)
Troponin I change from baseline to 24 weeks, Ratio ([1]; in vivo): 1.28 and 1.25 and 1.23
Ventricular tachyarrhythmia leading to treatment, RR ([1]; in vivo): 0.67 (0.42, 1.07) and 0.86 (0.59, 1.25) and 1.15 (0.77, 1.72) and 1.02 (0.73, 1.42)
Ventricular tachyarrhythmia, RR ([1]; in vivo): 0.82 (0.62, 1.09) and 0.89 (0.71, 1.12) and 1.05 (0.82, 1.35) and 1.03 (0.83, 1.27)
Ventricular tachyarrhythmia, number of patients ([1]; in vivo): 84 (6.7) and 130 (7.3) and 115 (8.6) and 160 (8.7)
Ventricular tachyarrhythmia, value in parentheses ([1]; in vivo): 84 (6.7) and 130 (7.3) and 115 (8.6) and 160 (8.7)
Primary endpoint, hazard ratio ([1]; overall population, NT-proBNP less than or equal to the median): 1.01
Primary endpoint, hazard ratio ([1]; overall population, NT-proBNP>median): 0.88
Primary outcome event rate compared with the placebo group ([1]; patients with AF/F at baseline, result in words): higher event rate
Proportional reduction in NT-proBNP compared with placebo ([1]; patients with NT-proBNP greater than the median at baseline): approximately 17%
Primary endpoint, hazard ratio ([1]; patients without AF/F, NT-proBNP greater than the median): 0.81
Primary endpoint, hazard ratio ([1]; patients without AF/F, NT-proBNP less than or equal to the median): 0.94
Benefit on primary endpoint ([1]; patients without AF/F, NT-proBNP≤median, result in words): no benefit
Relative risk reduction in cardiovascular mortality [1, 15]: 13%
Relative risk reduction in heart failure hospitalization [1, 15]: 21%
Relative risk reduction in the primary endpoint [1, 15]: 18%
Treatment efficacy / benefit by baseline NT-proBNP level ([1]; result in words): higher treatment efficacy; also recorded: larger in patients with higher baseline NT-proBNP levels
concentration at 6 weeks ([2]; patients not taking digoxin): 280 ng/mL
concentration at 6 weeks ([2]; patients taking digoxin): 286 ng/mL
Inhibition of BCRP [3]: inhibitor
Inhibition of BCRP [4]: weak inhibitor
Primary outcome, hazard ratio for the treatment effect ([5]; baseline SBP 101-110 mmHg (n=1734)): 0.88
Primary outcome, hazard ratio for the treatment effect ([5]; baseline SBP 111-120 mmHg (n=1824)): 1.03
Primary outcome, hazard ratio for the treatment effect ([5]; baseline SBP 121-130 mmHg (n=1627)): 0.87
Primary outcome, hazard ratio for the treatment effect ([5]; baseline SBP <100 mmHg (n=1473)): 0.81
Primary outcome, hazard ratio for the treatment effect ([5]; baseline SBP >130 mmHg (n=1574)): 1.07
Binding to plasma proteins [6]: 81.5%
Concentration dependence of protein binding ([6]; result in words): independent of drug concentration up to 4000 ng/mL
